Laboratory results published in patent publication US20240140953A1, “INHIBITORS OF MENIN-MLL INTERACTION” (BIOMEA FUSION, INC., priority 2018, published 2024).
Where two headings read alike, the source gives them in different places.

Legend:
[1] = test system: MV-4-11; experiment: Long term proliferation assay (Table 3A), MV-4-11; type: cell-based; settings: Homo sapiens, MV4-11
Experimental: Example 5b: IC50 determination of compounds of invention in various cell lines (Long Term Proliferation Assay)
The following 5 cell lines are used or can be used for the long term proliferation assay.
Compounds of invention are tested in the 5 suspension lines by 14-day long-term proliferation assay.
The compound is tested in 10-pt dose titration (client will determine the starting concentration and the dilution scheme) and the final DMSO concentration is kept at 0.2%.
Vehicle and media control are also included. All treatments are done in triplicate.
3 plates are used for each cell line and 15 plates are used for the 5 cell lines.
• 1) On Day 0, in a flat bottom 96-well plate, add 100 μL of cells per well at the densities optimized. • 2) Prepare compounds in DMSO at 500× final concentration. Dilute the compounds with DMSO at the dilution. • 3) Dilute the compounds in media at 3×final concentration. Add 50 μL of compound or DMSO at 3× final concentration to each well. Final volume in each well is 150 μL, and final concentration of DMSO is 0.2%. Also include 3 untreated control wells, by adding 50 μL of media alone. 4) Incubate plates for 96 hours. • 5) Count the cells using the Acumen, with capabilities for 96-well plates. Pipette cells up and down to mix in each well, and add desired volume of cells to a new flat bottom poly-D-lysine 96-well plate. Add Calcein AM at 1 μM final concentration. Let cells sit at RT for 10 mins followed by a quick spin to get cells settled on the bottom of the wells. Incubate the plate for additional 40 mins in the incubator. Take out the plate and read by Acumen. Calculate the cell numbers taken into account the dilution factors. • 6) Split the master plate. To do this take the total viable cell count calculated using step 5). Take the average of the replicates for each dose in order to be used in splitting the cells. • 7) Use a 96 well V-bottom plate to spin down the cells to remove old media and compound to split the cells. Based on the split ratio place the proper amount of media and cells into the V-bottom plate, and spin the plate at 1100 rpm for 5 minutes. • 8) Following the spin remove the media, careful not to disturb the cellpellet. • 9) Re-suspend pellet in 100 μL fresh media, and add to a new 96-well flat bottom plate. • 10) Add fresh compound, in the same manner as Step 3). • 11) Incubate plates for 72 hours. Repeat steps 5)-10) on Day 7. • 12) Incubate plates for 96 hours. Repeat Step 5)-10) on Day 11. • 13) Incubate 72 hours and repeat step 5) to take a final count. • 14) Data Analysis
To calculate growth for days 4, 7, 11, and 14: • Calculate the split factor for day 4 to 7, day 7 to 11, and day 11-14.

[2] = test system: MV4-11 (MLL-AF4); experiment: Proliferation study, CellTiterGlo, 4 days (Example 102), MV4-11; type: cell-based, human; settings: MV4-11, 4 days treatment; for IC50: CellTiterGlo; for MV4-11 (MLL-AF4) % max: maximal inhibition
Source text: The objective of the study was to evaluate the ability of representative compounds of the present invention, inhibitors of Menin/MLL interaction to inhibit cell proliferation. The proliferation inhibitory effect was investigated in two human MLL-leukemia cells selected on the bases of MLL fusion protein and listed in Table 102. HL-60 cell line was used as negative control.
ATP is present in all metabolically active cells and is considered as a marker for cell viability and proliferation. The metabolic cell activity was determined using the CellTiter-Glo kit from Promega, an ATP monitoring system based on the production of luminescence by the reaction of ATP with added UltraGlo® recombinant luciferase (Kawano et al., 2016), according to the supplier's experimental recommendations.
The described assay evaluates the ability of 4 representative compounds to inhibit the cell proliferation in the human MLL-leukemia cells plus a negative control cell line.
The assay provides potency values (IC50) for each test compound at a single time point Day 4 (T4).
Seven concentrations of the compounds (2.00E-05-6.67E-06-2.22E-06-7.41E-07-2.47E-07-8.23E-08-2.74E-08M), were assessed in duplicate in an individual test occasion in all the cell lines. MI-503 (Borkin et al., 2015) was used as reference compound and was tested at the same concentrations as the NCEs. 100% of proliferation is represented by the untreated cells (0.2% DMSO). The cell growth was monitored up to 4 days in culture.
MV4-11, MOLM-13 and HL-60 cells (see Table 2) were maintained in RPMI-1640 medium (Invitrogen, Cat. n. 618700, Batch n. 1965930) supplemented with 10% of Heat Inactivated FBS (Invitrogen, Cat n. 10500, Batch n. 08Q8078K) and 1% Pen-Strep (Invitrogen, Cat. N. 15140, Batch n. 1910859) and cultured at 37° C. in a humidified incubator with 5% CO2. All the cell lines grow in suspension and the cell density was maintained in a range of 2×10^5-1×10^6 viable cells/ml. Cells were pelleted at 130 g×5 min and conditioned medium was used to dilute the cell suspension.
Test items were dissolved in glass vials at 10 mM in DMSO with purity ≥99.9% (Sigma, D8418, batch n. SHBH4245V) and stored at −20° C. in 1.5 mL Eppendorf tubes.
Serial dilutions 1 to 3 in DMSO 100% were prepared starting from a 10 mM stock solutions to generate 7 points concentration response curve (CRC).
For each plate to test, one 0.4 μL copy plate and four 0.3 μL copy plates were then stamped into 96-well plates not treated for cell adhesion (Sarstedt—cat.no. 82.1581.001) by acoustic liquid Handling, Echo, at a concentration which was 500 fold the final assay concentration. Stamped plates were stored at −20° C. The final concentrations for the reference compound, MI-503, and the test items were: 2.00E-05, 6.67E-06, 2.22E-06, 7.41E-07, 2.47E-07, 8.23E-08 and 2.74E-08 M.
Cells were plated in 96-well flat bottom microtiter plates at cell density of 15,000 cells/ml for HL-60, 1000 cells/ml for MOLM-13 and 10,000 cell/ml for MV4-11. Cells were treated with 0.2% DMSO (Sigma, D8418, batch n. SHBH4245V) or serial dilutions of compounds (0.027 μM-20 μM) in DMSO (0.2% final concentration). Cells were incubated in a 5% CO2 incubator at 37° C. for 4 days. A CellTiterGlo viability assay (Promega) was employed. Luminescence was read by using VictorV (Perkin Elmer) multilabel plate reader using the standard protocol for luminescence in 96 well plate. The experiment was performed in duplicate.
Data were expressed as % of inhibition compared to the 0.2% DMSO negative control, and was calculated as follows: […]
CRCs were analysed by GraphPad and IC50 values were calculated by non-linear regression using 4 parameter-logistic equation. IC50 (μM) values were reported in the final data table. The curve fittings were performed leaving free all the parameters. Any constrain were reported in the results table.

[3] = MV-4-11, Day 4, read-out: MV-4-11 Day 4 IC50
[4] = Homo sapiens, MV4-11, 96 h, read-out: MV4-11 (MLL-AF4) IC50
[5] = Homo sapiens, MV4-11, 96 h, read-out: MV4-11 (MLL-AF4) pIC50 (converted)

SMILES	IC50 [1, 3]	IC50 [2, 4]	IC50 [2, 5]	MV4-11 (MLL-AF4) % max [2]	inhibition of cell viability (in words) ([2]; up to 20 μM)	IC50 ([1]; MV-4-11, Day 11, read-out: MV-4-11 Day 11 IC50)	IC50 ([2]; read-out: MV4-11 (MLL-AF4) IC50)
O=C(Cc1cc(-c2cccnc2)n[nH]1)Nc1ccc(-c2nc3c(N4CCOCC4)ncnc3[nH]2)cc1 [Compound 12, N-{4-[6-(morpholin-4-yl)-9H-purin-8-yl]phenyl}-2-[3-(pyridin-3-yl)-1H-pyrazol-5-yl]acetamide]	430 nM	430 nM	427 nM	89%	fully inhibited	–	–
O=C(Nc1ccc(-c2cc3c(N4CCOCC4)ncnc3[nH]2)cc1)Nc1cc(-c2cccnc2)n[nH]1 [Compound 9, 1-{4-[4-(morpholin-4-yl)-7H-pyrrolo[2,3-d]pyrimidin-6-yl]phenyl}-3-[3-(pyridin-3-yl)-1H-pyrazol-5-yl]urea]	490 nM	490 nM	490 nM	102%	–	257 nM	–
Cn1nc(-c2cccnc2)cc1CC(=O)Nc1ccc(-c2cc3c(N4CCOCC4)ncnc3[nH]2)cc1 [Compound 11, 2-[1-methyl-3-(pyridin-3-yl)-1H-pyrazol-5-yl]-N-{4-[4-(morpholin-4-yl)-7H-pyrrolo[2,3-d]pyrimidin-6-yl]phenyl}acetamide]	280 nM	200 nM	282 nM	100%	–	–	280 nM
